Measured values from ChEMBL document CHEMBL1201862, “PubChem BioAssay data set” (2004).
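Compound exposure: 48 hours, 5 concentrations, 96-well plates. GI50 = concentration required for 50% inhibition of growth.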 Calls of active or inactive are those of the source. Cut-off read from the data, not from the text of the source: active = GI50 up to about 1.1 µM and inactive = higher.

Legend:
Experiment in all cases: NCI tumour cell line growth inhibition, 48 h
[1] = system: KM12
[2] = system: HCC 2998
[3] = system: SN12C
[4] = system: HOP-62
[5] = system: SK-MEL-5
[6] = system: K562
[7] = system: OVCAR-5
[8] = system: HCT-116
[9] = system: OVCAR-8
[10] = system: U-251
[11] = system: IGROV-1
[12] = system: Malme-3M
[13] = system: UACC-257
[14] = system: RPMI-8226

Measured: GI50

COc1ccc2c(c1)C(=O)C1CC(=O)CCC21 (stereo not given)
inactive: [1] > 100 µM | [2] > 100 µM | [3] > 100 µM | [4] > 100 µM | [5] > 100 µM | [6] > 100 µM | [7] > 100 µM | [8] > 100 µM | [9] > 100 µM | [10] > 100 µM | [11] > 100 µM | [12] > 100 µM | [13] > 100 µM | [14] > 100 µM

CC(CCCOC(c1ccccc1)(c1ccccc1)c1ccccc1)OC(=O)Nc1ccccc1 (stereo not given)
inactive: [1] 14 µM | [2] 14.1 µM | [3] 12 µM | [4] 14.8 µM | [5] 14.1 µM | [6] 11.3 µM | [7] 13.7 µM | [8] 11.1 µM | [9] 14 µM | [10] 13.6 µM | [11] 16.4 µM | [12] 15.8 µM | [13] 15.3 µM | [14] 15 µM

Cn1ncc2ccc3[nH]c4ccccc4c(=O)c3c21
inactive: [1] 38.3 µM | [2] 31.4 µM | [3] 28.2 µM | [4] 26.5 µM | [5] 17.5 µM | [6] 31.6 µM | [7] 33.6 µM | [8] 24.9 µM | [9] 28.1 µM | [10] 15.7 µM | [11] 39.9 µM | [12] 30.1 µM | [13] 31 µM | [14] 22.5 µM

COc1cc(C(C)c2cc3c(cc2OCCOCCOc2cc4c(cc2C(C)c2cc(OC)c(OC)c(OC)c2)OCO4)OCO3)cc(OC)c1OC (stereo not given)
inactive: [1] > 10 µM | [2] > 10 µM | [3] > 10 µM | [4] > 10 µM | [5] 89.1 µM | [6] 36.1 µM | [7] > 10 µM | [8] > 10 µM | [9] > 10 µM | [10] > 10 µM | [11] > 10 µM | [12] > 10 µM | [13] > 10 µM | [14] > 100 µM

O=C(Cc1ccccc1)N/N=C(/c1nc2ccc([N+](=O)[O-])cc2nc1O)C(O)c1ccccc1Cl (stereo not given)
inactive: [1] 79.3 µM | [2] 54 µM | [3] > 100 µM | [4] > 100 µM | [5] 41.4 µM | [6] > 100 µM | [7] > 100 µM | [8] > 100 µM | [9] > 100 µM | [10] > 100 µM | [11] > 100 µM | [12] > 100 µM | [13] > 100 µM | [14] > 100 µM

C/C(CN1C(=O)c2ccccc2C1=O)=N\NS(=O)(=O)c1cccc([N+](=O)[O-])c1
inactive: [1] > 100 µM | [2] > 100 µM | [3] > 100 µM | [4] > 100 µM | [5] > 100 µM | [6] > 100 µM | [7] > 100 µM | [8] > 100 µM | [9] > 100 µM | [10] > 100 µM | [11] > 100 µM | [12] > 100 µM | [13] > 100 µM | [14] > 100 µM

Cc1c(Cl)cccc1N1C(=O)C(Cl)=C(Cl)C1=O
inactive: [1] > 100 µM | [2] > 100 µM | [3] > 100 µM | [4] > 100 µM | [5] > 100 µM | [6] 17.9 µM | [7] > 100 µM | [8] > 100 µM | [9] > 100 µM | [10] > 100 µM | [11] > 100 µM | [12] > 100 µM | [13] > 100 µM | [14] 43 µM

CCOC(=O)c1cn(Cc2ccccc2)c(=O)n1Cc1ccccc1
inactive: [1] > 100 µM | [2] > 100 µM | [3] > 100 µM | [4] > 100 µM | [5] > 100 µM | [6] 52 µM | [7] > 100 µM | [8] > 100 µM | [9] > 100 µM | [10] > 100 µM | [11] > 100 µM | [12] > 100 µM | [13] > 100 µM | [14] 40.2 µM

CCC12CC[C@H](C#N)N3CCc4c(n(c5ccccc45)C(=O)C1)C32 (stereo not given in full)
inactive: [1] 8.17 µM | [2] 15.8 µM | [3] 19.4 µM | [4] 22.9 µM | [5] 12.7 µM | [6] 5.28 µM | [7] 21.5 µM | [8] 13.9 µM | [9] 19.9 µM | [10] 16.3 µM | [11] 24.8 µM | [12] 4.02 µM | [13] 14 µM | [14] 17.9 µM

COc1cc(C=O)c(-c2cc3c(cc2C=O)OCO3)c(OC)c1OC
inactive: [1] 59.3 µM | [2] 210 µM | [3] 85.9 µM | [4] 108 µM | [5] 94.6 µM | [6] 87.1 µM | [7] > 290 µM | [8] 64.3 µM | [9] 117 µM | [10] 126 µM | [11] 143 µM | [12] 96.6 µM | [13] 123 µM | [14] 96.6 µM
